Data published in patent US11319324B2, “Pyrazolo-pyrrolo-pyrimidine-dione derivatives as P2X3 inhibitors” (Bayer Aktiengesellschaft, priority 2017, dated 2022).

Experiments:
Assay type in all cases: cell-based
human P2X2/3 receptors = target: T1, human P2X2/3 receptors (Homo sapiens, UniProt P56373+Q9UBL9); experiment: Intracellular calcium measurement, antagonist activity at human P2X2/3 receptors (hP2X23 1321N1), Fluo8; details: for IC50: column 4); 1321N1 cells, human P2X2/3, Fluo8, agonist ATP at EC50; read-out: 4) hP2X2/3 IC50 [nM] (1321N1); for hP2X23/hP2X3* Selectivity (1321N1): ratio of column 4) hP2X2/3 to column 3) hP2X3, 1321N1
T1 construct: expressed in transfected cells; host or cells: human astrocytoma 1321N1 (1312N1 [sic])
T1 sequence (P56373 1-397): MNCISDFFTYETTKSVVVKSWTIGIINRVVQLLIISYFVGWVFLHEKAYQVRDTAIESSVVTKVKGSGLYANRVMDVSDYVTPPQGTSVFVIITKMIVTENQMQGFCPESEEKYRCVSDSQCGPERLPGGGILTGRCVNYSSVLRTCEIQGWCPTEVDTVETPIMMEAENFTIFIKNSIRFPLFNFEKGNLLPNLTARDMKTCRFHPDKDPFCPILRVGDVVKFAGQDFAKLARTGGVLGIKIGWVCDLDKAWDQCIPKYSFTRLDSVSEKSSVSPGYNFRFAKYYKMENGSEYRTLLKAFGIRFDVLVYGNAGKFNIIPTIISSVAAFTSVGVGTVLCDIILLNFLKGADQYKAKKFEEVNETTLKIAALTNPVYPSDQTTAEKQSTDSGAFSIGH
T1 sequence (Q9UBL9 1-471): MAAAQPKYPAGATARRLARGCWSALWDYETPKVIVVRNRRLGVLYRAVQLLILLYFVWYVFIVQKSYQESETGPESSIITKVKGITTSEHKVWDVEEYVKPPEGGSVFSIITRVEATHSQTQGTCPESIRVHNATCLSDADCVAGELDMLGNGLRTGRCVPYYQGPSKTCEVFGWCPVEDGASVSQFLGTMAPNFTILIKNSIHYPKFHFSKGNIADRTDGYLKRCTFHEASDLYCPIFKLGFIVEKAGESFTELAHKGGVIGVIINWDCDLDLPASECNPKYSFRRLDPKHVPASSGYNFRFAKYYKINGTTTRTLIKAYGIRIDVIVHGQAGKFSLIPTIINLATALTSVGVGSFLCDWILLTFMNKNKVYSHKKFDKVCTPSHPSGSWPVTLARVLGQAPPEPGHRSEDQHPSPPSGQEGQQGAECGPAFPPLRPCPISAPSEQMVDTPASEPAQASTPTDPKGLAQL
Procedure, shortened: (§1)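 Antagonism was assessed by decrease of the Fluo8 calcium signal after ATP challenge, with ATP dosed at the EC50 of whichever receptor was tested. Stable 1321N1 astrocytoma lines expressed either human P2X3 or both P2X2 and P2X3, and were dye-loaded 60 min before a 10 min compound incubation.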

human P2X3 receptor [1] = target: T2, human P2X3 receptor (Homo sapiens, UniProt P56373); experiment: Intracellular calcium measurement to assess antagonist activity at human P2X3 receptors (hP2X3 CHO), photina luminescence; parameters: expressed in transfected cells; host or cells: Chinese hamster ovary (CHO) cells; details: column 2), CHO cells, agonist α,β-methylene-ATP at EC50
T2 sequence (P56373 1-397): T1 sequence (P56373 1-397)
Procedure, shortened: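 Antagonism read as lowered photina luminescence after agonist stimulation in recombinant hP2X3/photina CHO cells. Cells seeded one day earlier (30 °C) and reconstituted with 5 μg/ml coelenterazine in 2 mM Ca-tyrode buffer for 3 h at 37 °C before measurement.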

human P2X3 receptor [2] = target: T2, human P2X3 receptor; experiment: Intracellular calcium measurement, antagonist activity at human P2X3 receptors (hP2X3 1321N1), Fluo8; parameters: expressed in transfected cells; host or cells: human astrocytoma 1321N1 (1312N1 [sic]); details: column 3); 1321N1 cells, human P2X3, Fluo8, agonist ATP at EC50
Procedure, shortened: as §1

CCNc1cc2n(CC(=O)Nc3ccc(F)cn3)c3c(c(=O)n2n1)CN(C(C)C)C3=O [Example 173]
IC50 (human P2X2/3 receptors): 8900 nM | hP2X23/hP2X3* Selectivity (1321N1) (human P2X2/3 receptors): 85 | IC50 (human P2X3 receptor [1]): 58 nM | IC50 (human P2X3 receptor [2]): 104 nM

CC(C)N1Cc2c(n(CC(=O)Nc3ccc(F)cn3)c3cc(NCC4CC4)nn3c2=O)C1=O [Example 175]
IC50 (human P2X2/3 receptors): 6950 nM | hP2X23/hP2X3* Selectivity (1321N1) (human P2X2/3 receptors): 190 | IC50 (human P2X3 receptor [1]): 73 nM | IC50 (human P2X3 receptor [2]): 37 nM

CC(C)N1Cc2c(n(CC(=O)Nc3ccc(F)cn3)c3cc(NCCOCc4ccccc4)nn3c2=O)C1=O [Example 176, 2-[2-{[2-(benzyloxy)ethyl]amino}-5,8-dioxo-6-(propan-2-yl)-5,6,7,8-tetrahydro-4H-pyrazolo[1,5-a]pyrrolo[3,4-d]pyrimidin-4-yl]-N-(5-fluoropyridin-2-yl)acetamide]
IC50 (human P2X2/3 receptors): 7700 nM | hP2X23/hP2X3* Selectivity (1321N1) (human P2X2/3 receptors): 114 | IC50 (human P2X3 receptor [1]): 88 nM | IC50 (human P2X3 receptor [2]): 68 nM

COC[C@H](C)N1Cc2c(n(CC(=O)Nc3ccc(F)cn3)c3cc(N(C)C)nn3c2=O)C1=O [Example 177]
IC50 (human P2X2/3 receptors): 11500 nM | hP2X23/hP2X3* Selectivity (1321N1) (human P2X2/3 receptors): 397 | IC50 (human P2X3 receptor [1]): 30 nM | IC50 (human P2X3 receptor [2]): 29 nM

COC[C@H](C)N1Cc2c(n(CC(=O)Nc3ccc(F)cn3)c3cc(NC4CCCC4)nn3c2=O)C1=O [Example 178]
IC50 (human P2X2/3 receptors): 2200 nM | hP2X23/hP2X3* Selectivity (1321N1) (human P2X2/3 receptors): 917 | IC50 (human P2X3 receptor [1]): 14 nM | IC50 (human P2X3 receptor [2]): 2 nM

CC(C)N1Cc2c(n(CC(=O)Nc3ccc(F)cn3)c3cc(N4CCOCC4)nn3c2=O)C1=O [Example 180, N-(5-fluoropyridin-2-yl)-2-[2-(morpholin-4-yl)-5,8-dioxo-6-(propan-2-yl)-5,6,7,8-tetrahydro-4H-pyrazolo[1,5-a]pyrrolo[3,4-d]pyrimidin-4-yl]acetamide]
IC50 (human P2X2/3 receptors): > 32000 nM | hP2X23/hP2X3* Selectivity (1321N1) (human P2X2/3 receptors): >188 | IC50 (human P2X3 receptor [1]): 175 nM | IC50 (human P2X3 receptor [2]): 170 nM

CC(C)N1Cc2c(n(CC(=O)Nc3ccc(F)cn3)c3cc(N4CCN(C)CC4)nn3c2=O)C1=O [Example 181, N-(5-fluoropyridin-2-yl)-2-[2-(4-methylpiperazin-1-yl)-5,8-dioxo-6-(propan-2-yl)-5,6,7,8-tetrahydro-4H-pyrazolo[1,5-a]pyrrolo[3,4-d]pyrimidin-4-yl]acetamide]
IC50 (human P2X2/3 receptors): 5550 nM | hP2X23/hP2X3* Selectivity (1321N1) (human P2X2/3 receptors): 173 | IC50 (human P2X3 receptor [1]): 63 nM | IC50 (human P2X3 receptor [2]): 32 nM

CC(C)N1Cc2c(n(CC(=O)Nc3ccc(F)cn3)c3cc(C(=O)N(C)C)nn3c2=O)C1=O [Example 182, 4-{2-[(5-fluoropyridin-2-yl)amino]-2-oxoethyl}-N,N-dimethyl-5,8-dioxo-6-(propan-2-yl)-5,6,7,8-tetrahydro-4H-pyrazolo[1,5-a]pyrrolo[3,4-d]pyrimidine-2-carboxamide]
IC50 (human P2X2/3 receptors): > 32000 nM | hP2X23/hP2X3* Selectivity (1321N1) (human P2X2/3 receptors): >194 | IC50 (human P2X3 receptor [1]): 109 nM | IC50 (human P2X3 receptor [2]): 165 nM

CC(C)N1Cc2c(n(CC(=O)Nc3ccc(F)cn3)c3cc(C(=O)N4CCCCC4)nn3c2=O)C1=O [Example 183]
IC50 (human P2X2/3 receptors): 2300 nM | hP2X23/hP2X3* Selectivity (1321N1) (human P2X2/3 receptors): 118 | IC50 (human P2X3 receptor [1]): 23 nM | IC50 (human P2X3 receptor [2]): 20 nM

CC(C)N1Cc2c(n(CC(=O)Nc3ccc(F)cn3)c3cc(C(=O)NCC(F)F)nn3c2=O)C1=O [Example 184]
IC50 (human P2X2/3 receptors): 3200 nM | hP2X23/hP2X3* Selectivity (1321N1) (human P2X2/3 receptors): 70 | IC50 (human P2X3 receptor [1]): 38 nM | IC50 (human P2X3 receptor [2]): 46 nM

CC(C)N1Cc2c(n(CC(=O)Nc3ccc(F)cn3)c3cc(C(=O)NC4CCCC4)nn3c2=O)C1=O [Example 185]
IC50 (human P2X2/3 receptors): 3350 nM | hP2X23/hP2X3* Selectivity (1321N1) (human P2X2/3 receptors): 84 | IC50 (human P2X3 receptor [1]): 22 nM | IC50 (human P2X3 receptor [2]): 40 nM

CC(C)N1Cc2c(n(CC(=O)Nc3ccc(F)cn3)c3cc(C(=O)NC(C)(C)C)nn3c2=O)C1=O [Example 186]
IC50 (human P2X2/3 receptors): > 32000 nM | hP2X23/hP2X3* Selectivity (1321N1) (human P2X2/3 receptors): >17 | IC50 (human P2X3 receptor [1]): 124 nM | IC50 (human P2X3 receptor [2]): 1850 nM

CC(C)N1Cc2c(n(CC(=O)Nc3ccc(F)cn3)c3cc(C(=O)NCC4CC4)nn3c2=O)C1=O [Example 187]
IC50 (human P2X2/3 receptors): 2300 nM | hP2X23/hP2X3* Selectivity (1321N1) (human P2X2/3 receptors): 112 | IC50 (human P2X3 receptor [1]): 21 nM | IC50 (human P2X3 receptor [2]): 21 nM

CC(C)N1Cc2c(n(CC(=O)Nc3ccc(F)cn3)c3cc(C(=O)N4CCN(C)CC4)nn3c2=O)C1=O [Example 188]
IC50 (human P2X2/3 receptors): > 32000 nM | hP2X23/hP2X3* Selectivity (1321N1) (human P2X2/3 receptors): >267 | IC50 (human P2X3 receptor [1]): 91 nM | IC50 (human P2X3 receptor [2]): 120 nM

COC[C@H](C)N1Cc2c(n(CC(=O)Nc3ccc(F)cn3)c3cc(C(=O)N(C)C)nn3c2=O)C1=O [Example 189]
IC50 (human P2X2/3 receptors): > 23500 nM | hP2X23/hP2X3* Selectivity (1321N1) (human P2X2/3 receptors): >291 | IC50 (human P2X3 receptor [1]): 35 nM | IC50 (human P2X3 receptor [2]): 81 nM

COC[C@H](C)N1Cc2c(n(CC(=O)Nc3ccc(F)cn3)c3cc(C(=O)NCC4CC4)nn3c2=O)C1=O [Example 190]
IC50 (human P2X2/3 receptors): 5900 nM | hP2X23/hP2X3* Selectivity (1321N1) (human P2X2/3 receptors): 361 | IC50 (human P2X3 receptor [1]): 10 nM | IC50 (human P2X3 receptor [2]): 16 nM

COC[C@H](C)N1Cc2c(n(CC(=O)Nc3ccc(F)cn3)c3cc(C(=O)N4CCOCC4)nn3c2=O)C1=O [Example 191]
IC50 (human P2X2/3 receptors): > 32000 nM | hP2X23/hP2X3* Selectivity (1321N1) (human P2X2/3 receptors): >1199 | IC50 (human P2X3 receptor [1]): 29 nM | IC50 (human P2X3 receptor [2]): 27 nM

COC[C@H](C)N1Cc2c(n(CC(=O)Nc3ccc(F)cn3)c3cc(C(=O)NC4CC4)nn3c2=O)C1=O [Example 192]
IC50 (human P2X2/3 receptors): > 19600 nM | hP2X23/hP2X3* Selectivity (1321N1) (human P2X2/3 receptors): >530 | IC50 (human P2X3 receptor [1]): 56 nM | IC50 (human P2X3 receptor [2]): 37 nM

CNC(=O)c1cc2n(CC(=O)Nc3ccc(F)cn3)c3c(c(=O)n2n1)CN([C@@H](C)COC)C3=O [Example 193]
IC50 (human P2X2/3 receptors): > 22500 nM | hP2X23/hP2X3* Selectivity (1321N1) (human P2X2/3 receptors): >180 | IC50 (human P2X3 receptor [1]): 155 nM | IC50 (human P2X3 receptor [2]): 125 nM

COC[C@H](C)N1Cc2c(n(CC(=O)Nc3ccc(F)cn3)c3cc(C(=O)N4CCC4)nn3c2=O)C1=O [Example 194]
IC50 (human P2X2/3 receptors): 3200 nM | hP2X23/hP2X3* Selectivity (1321N1) (human P2X2/3 receptors): 368 | IC50 (human P2X3 receptor [1]): 18 nM | IC50 (human P2X3 receptor [2]): 9 nM

COC[C@H](C)N1Cc2c(n(CC(=O)Nc3ccc(F)cn3)c3cc(C(=O)N(C)CC4CC4)nn3c2=O)C1=O [Example 195]
IC50 (human P2X2/3 receptors): 8900 nM | hP2X23/hP2X3* Selectivity (1321N1) (human P2X2/3 receptors): 399 | IC50 (human P2X3 receptor [1]): 20 nM | IC50 (human P2X3 receptor [2]): 22 nM

COC[C@H](C)N1Cc2c(n(CC(=O)Nc3ccc(F)cn3)c3cc(C(=O)N(C)C4CC4)nn3c2=O)C1=O [Example 196]
IC50 (human P2X2/3 receptors): 4150 nM | hP2X23/hP2X3* Selectivity (1321N1) (human P2X2/3 receptors): 277 | IC50 (human P2X3 receptor [1]): 10 nM | IC50 (human P2X3 receptor [2]): 15 nM

COC[C@H](C)N1Cc2c(n(CC(=O)Nc3ccc(F)cn3)c3cc(C(=O)NCC(F)F)nn3c2=O)C1=O [Example 197]
IC50 (human P2X2/3 receptors): 9800 nM | hP2X23/hP2X3* Selectivity (1321N1) (human P2X2/3 receptors): 291 | IC50 (human P2X3 receptor [1]): 19 nM | IC50 (human P2X3 receptor [2]): 34 nM

COC[C@H](C)N1Cc2c(n(CC(=O)Nc3ccc(F)cn3)c3cc(C(=O)N4CCCCC4)nn3c2=O)C1=O [Example 198]
IC50 (human P2X2/3 receptors): 9300 nM | hP2X23/hP2X3* Selectivity (1321N1) (human P2X2/3 receptors): 581 | IC50 (human P2X3 receptor [1]): 35 nM | IC50 (human P2X3 receptor [2]): 16 nM
